Data as given in ChEMBL document CHEMBL5696441 (Nat Chem Biol, 2011).

Assays:
[1] = test system: Dual specificity mitogen-activated protein kinase kinase 6 (Homo sapiens), P52564 [S207D,T211D]; experiment: Inhibition of human MKK6 S207D/T211D double mutant assessed as residual activity at 1 uM using p38-alpha KA as substrate in presence of 33P-ATP by ProQinase assay relative to control
[2] = Anti-inflammatory activity against human derived medium respond PBMC cells assessed as inhibition in stimulated IL-1beta cytokine release incubated for 2 hrs in the presence of LPS/SEB/aCD28 by Luminex based sandwich immunoassay; format: functional, cell-based
[3] = target: Ephrin type-B receptor 1 (Homo sapiens) (UniProt P54762); experiment: Inhibition of human EPHB1 assessed as residual activity at 1 uM using polyEY as substrate in presence of 33P-ATP by ProQinase assay relative to control
[4] = target: Discoidin domain-containing receptor 2 (Homo sapiens) (UniProt Q16832); experiment: Inhibition of DDR2 (unknown origin) assessed as remaining activity at 1 uM by Kinome scan method relative to control
[5] = Anti-inflammatory activity against human derived high respond PBMC cells assessed as inhibition in stimulated IL-6 cytokine release incubated for 2 hrs in the presence of LPS/SEB/aCD28 by Luminex based sandwich immunoassay; format: functional, cell-based
[6] = target: Atypical kinase COQ8B, mitochondrial (Homo sapiens) (UniProt Q96D53); experiment: Inhibition of ADCK4 (unknown origin) assessed as remaining activity at 1 uM by Kinome scan method relative to control
[7] = target: cAMP-dependent protein kinase catalytic subunit PRKX (Homo sapiens) (UniProt P51817); experiment: Inhibition of human PRKX assessed as residual activity at 1 uM using RBER-GSK3(14-27) as substrate in presence of 33P-ATP by ProQinase assay relative to control
[8] = target: Ephrin type-A receptor 4 (Homo sapiens) (UniProt P54764); experiment: Inhibition of EPHA4 (unknown origin) assessed as remaining activity at 1 uM by Kinome scan method relative to control
[9] = target: Mitogen-activated protein kinase kinase kinase 9 (Homo sapiens) (UniProt P80192); experiment: Inhibition of MLK1 (unknown origin) assessed as remaining activity at 1 uM by Kinome scan method relative to control
[10] = target: Mitogen-activated protein kinase 3 (Homo sapiens) (UniProt P27361); experiment: Inhibition of ERK1 (unknown origin) assessed as remaining activity at 1 uM by Kinome scan method relative to control
[11] = test system: Proto-oncogene tyrosine-protein kinase receptor Ret (Homo sapiens), P07949 [V804M]; experiment: Inhibition of RET V804M (unknown origin) assessed as remaining activity at 1 uM by Kinome scan method relative to control
[12] = target: Protein kinase C epsilon type (Homo sapiens) (UniProt Q02156); experiment: Inhibition of human PKCepsilon assessed as residual activity at 1 uM using 3xChocktide-PKC(19-31) as substrate in presence of 33P-ATP by ProQinase assay relative to control
[13] = target: CDK8/Cyclin C (Homo sapiens) (UniProt P49336+P24863); experiment: Inhibition of human CDK8/CyclinC assessed as residual activity at 1 uM using RBER-CHKtide as substrate in presence of 33P-ATP by ProQinase assay relative to control; format: protein-complex assay
[14] = target: Ribosomal protein S6 kinase alpha-4 (Homo sapiens) (UniProt O75676); experiment: Inhibition of human RPS6KA4 assessed as residual activity at 1 uM using RBER-CHKtide as substrate in presence of 33P-ATP by ProQinase assay relative to control
[15] = test system: Phosphatidylinositol 4,5-bisphosphate 3-kinase catalytic subunit alpha isoform (Homo sapiens), P42336 [E542K]; experiment: Inhibition of PIK3CA E542K mutant (unknown origin) assessed as remaining activity at 1 uM by Kinome scan method relative to control
[16] = target: Wee1-like protein kinase 2 (Homo sapiens) (UniProt P0C1S8); experiment: Inhibition of WEE2 (unknown origin) assessed as remaining activity at 1 uM by Kinome scan method relative to control
[17] = target: Serine/threonine-protein kinase MAK (Homo sapiens) (UniProt P20794); experiment: Inhibition of MAK (unknown origin) assessed as remaining activity at 1 uM by Kinome scan method relative to control
[18] = target: Protein kinase C delta type (Homo sapiens) (UniProt Q05655); experiment: Inhibition of human PKCdelta assessed as residual activity at 1 uM using 3xChocktide-PKC(19-31) as substrate in presence of 33P-ATP by ProQinase assay relative to control
[19] = target: Homeodomain-interacting protein kinase 2 (Homo sapiens) (UniProt Q9H2X6); experiment: Inhibition of HIPK2 (unknown origin) assessed as remaining activity at 1 uM by Kinome scan method relative to control
[20] = target: Serine/threonine-protein kinase PAK 6 (Homo sapiens) (UniProt Q9NQU5); experiment: Inhibition of PAK6 (unknown origin) assessed as remaining activity at 1 uM by Kinome scan method relative to control
[21] = target: Angiopoietin-1 receptor (Homo sapiens) (UniProt Q02763); experiment: Inhibition of TIE2 (unknown origin) assessed as remaining activity at 1 uM by Kinome scan method relative to control
[22] = target: Serine/threonine-protein kinase PAK 4 (Homo sapiens) (UniProt O96013); experiment: Inhibition of human PAK4 assessed as residual activity at 1 uM using bio-4xCHKT as substrate in presence of 33P-ATP by ProQinase assay relative to control
[23] = target: Serine/threonine-protein kinase 16 (Homo sapiens) (UniProt O75716); experiment: Inhibition of human TSF1 assessed as residual activity at 1 uM using casein as substrate in presence of 33P-ATP by ProQinase assay relative to control
[24] = target: Serine/threonine-protein kinase 24 (Homo sapiens) (UniProt Q9Y6E0); experiment: Inhibition of MST3 (unknown origin) assessed as remaining activity at 1 uM by Kinome scan method relative to control
[25] = target: Serine/threonine-protein kinase pim-1 (Homo sapiens) (UniProt P11309); experiment: Inhibition of human PIM1 assessed as residual activity at 1 uM using RBER-GSK3(14-27) as substrate in presence of 33P-ATP by ProQinase assay relative to control
[26] = target: Mitogen-activated protein kinase 3 (Homo sapiens) (UniProt P27361); experiment: Inhibition of human ERK1 assessed as residual activity at 1 uM using RBER-CHKtide as substrate in presence of 33P-ATP by ProQinase assay relative to control
[27] = target: Serine/threonine-protein kinase PRP4 homolog (Homo sapiens) (UniProt Q13523); experiment: Inhibition of PRP4 (unknown origin) assessed as remaining activity at 1 uM by Kinome scan method relative to control
[28] = target: Tyrosine-protein kinase JAK1 (Homo sapiens) (UniProt P23458); experiment: Inhibition of JAK1 JH1 domain (unknown origin) assessed as remaining activity at 1 uM by Kinome scan method relative to control
[29] = target: Cyclin-dependent kinase 5 (Homo sapiens) (UniProt Q00535); experiment: Inhibition of CDK5 (unknown origin) assessed as remaining activity at 1 uM by Kinome scan method relative to control

Sequence of Mitogen-activated protein kinase 3 (Homo sapiens) (P27361 whole entry): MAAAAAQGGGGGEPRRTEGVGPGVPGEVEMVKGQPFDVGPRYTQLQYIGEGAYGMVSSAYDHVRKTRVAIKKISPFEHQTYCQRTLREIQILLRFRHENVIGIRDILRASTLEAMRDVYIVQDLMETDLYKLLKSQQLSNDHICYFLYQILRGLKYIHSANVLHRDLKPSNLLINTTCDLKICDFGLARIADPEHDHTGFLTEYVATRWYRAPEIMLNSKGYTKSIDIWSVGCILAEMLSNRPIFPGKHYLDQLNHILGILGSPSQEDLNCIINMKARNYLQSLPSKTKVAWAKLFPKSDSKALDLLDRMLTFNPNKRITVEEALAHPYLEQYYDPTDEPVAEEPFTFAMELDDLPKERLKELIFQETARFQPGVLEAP
Sequence of Discoidin domain-containing receptor 2 (Homo sapiens) (Q16832 whole entry, the tested form may be a part): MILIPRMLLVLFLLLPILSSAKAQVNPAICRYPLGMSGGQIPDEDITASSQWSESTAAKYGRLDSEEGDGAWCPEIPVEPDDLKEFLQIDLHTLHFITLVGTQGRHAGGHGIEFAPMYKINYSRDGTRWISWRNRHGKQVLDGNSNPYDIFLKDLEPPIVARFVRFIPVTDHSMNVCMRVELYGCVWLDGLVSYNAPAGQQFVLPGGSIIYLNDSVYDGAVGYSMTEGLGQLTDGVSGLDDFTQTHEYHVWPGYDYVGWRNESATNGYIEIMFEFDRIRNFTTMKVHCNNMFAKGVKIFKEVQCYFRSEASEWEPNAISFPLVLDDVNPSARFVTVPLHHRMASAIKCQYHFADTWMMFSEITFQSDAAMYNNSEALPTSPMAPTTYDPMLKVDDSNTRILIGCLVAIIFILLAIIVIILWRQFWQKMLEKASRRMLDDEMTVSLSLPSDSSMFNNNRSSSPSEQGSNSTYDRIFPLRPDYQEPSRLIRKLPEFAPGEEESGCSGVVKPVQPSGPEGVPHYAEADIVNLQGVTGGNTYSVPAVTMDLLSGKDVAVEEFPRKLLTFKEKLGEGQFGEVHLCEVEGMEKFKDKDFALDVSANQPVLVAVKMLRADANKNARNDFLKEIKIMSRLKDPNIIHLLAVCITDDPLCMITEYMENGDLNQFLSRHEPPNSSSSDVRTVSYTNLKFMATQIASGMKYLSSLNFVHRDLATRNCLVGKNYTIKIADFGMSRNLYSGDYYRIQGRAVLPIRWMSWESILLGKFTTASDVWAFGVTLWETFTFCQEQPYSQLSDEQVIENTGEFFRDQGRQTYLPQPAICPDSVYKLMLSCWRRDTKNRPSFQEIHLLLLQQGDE
Sequence of Serine/threonine-protein kinase pim-1 (Homo sapiens) (P11309 whole entry, looked up): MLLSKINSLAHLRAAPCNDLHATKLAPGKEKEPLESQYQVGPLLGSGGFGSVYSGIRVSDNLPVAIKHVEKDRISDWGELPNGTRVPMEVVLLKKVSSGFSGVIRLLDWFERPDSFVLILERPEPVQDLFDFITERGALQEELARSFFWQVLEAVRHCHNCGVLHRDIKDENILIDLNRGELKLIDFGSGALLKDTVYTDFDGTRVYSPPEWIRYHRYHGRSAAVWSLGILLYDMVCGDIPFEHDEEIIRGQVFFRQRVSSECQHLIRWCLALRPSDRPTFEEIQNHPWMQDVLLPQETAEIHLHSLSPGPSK
Sequence of Serine/threonine-protein kinase PAK 6 (Homo sapiens) (Q9NQU5 whole entry, looked up): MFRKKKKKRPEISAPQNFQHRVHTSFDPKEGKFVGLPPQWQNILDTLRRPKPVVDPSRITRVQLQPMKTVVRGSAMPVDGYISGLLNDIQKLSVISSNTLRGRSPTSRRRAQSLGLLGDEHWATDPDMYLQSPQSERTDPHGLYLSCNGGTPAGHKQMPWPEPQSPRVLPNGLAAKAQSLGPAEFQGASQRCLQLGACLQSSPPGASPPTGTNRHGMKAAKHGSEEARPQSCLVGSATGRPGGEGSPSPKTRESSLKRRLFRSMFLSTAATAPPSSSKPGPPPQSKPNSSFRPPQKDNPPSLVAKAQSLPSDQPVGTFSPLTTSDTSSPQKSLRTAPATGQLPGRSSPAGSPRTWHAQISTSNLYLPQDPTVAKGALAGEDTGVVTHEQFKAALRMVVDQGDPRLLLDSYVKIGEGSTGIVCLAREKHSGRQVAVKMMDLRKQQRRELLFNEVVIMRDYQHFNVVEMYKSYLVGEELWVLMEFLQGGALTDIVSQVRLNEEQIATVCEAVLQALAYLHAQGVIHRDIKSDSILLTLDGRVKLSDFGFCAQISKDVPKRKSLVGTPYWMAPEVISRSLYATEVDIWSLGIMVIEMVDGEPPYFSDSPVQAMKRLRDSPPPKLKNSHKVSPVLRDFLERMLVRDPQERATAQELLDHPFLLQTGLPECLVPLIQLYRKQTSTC
Sequence of Ephrin type-A receptor 4 (Homo sapiens) (P54764 whole entry): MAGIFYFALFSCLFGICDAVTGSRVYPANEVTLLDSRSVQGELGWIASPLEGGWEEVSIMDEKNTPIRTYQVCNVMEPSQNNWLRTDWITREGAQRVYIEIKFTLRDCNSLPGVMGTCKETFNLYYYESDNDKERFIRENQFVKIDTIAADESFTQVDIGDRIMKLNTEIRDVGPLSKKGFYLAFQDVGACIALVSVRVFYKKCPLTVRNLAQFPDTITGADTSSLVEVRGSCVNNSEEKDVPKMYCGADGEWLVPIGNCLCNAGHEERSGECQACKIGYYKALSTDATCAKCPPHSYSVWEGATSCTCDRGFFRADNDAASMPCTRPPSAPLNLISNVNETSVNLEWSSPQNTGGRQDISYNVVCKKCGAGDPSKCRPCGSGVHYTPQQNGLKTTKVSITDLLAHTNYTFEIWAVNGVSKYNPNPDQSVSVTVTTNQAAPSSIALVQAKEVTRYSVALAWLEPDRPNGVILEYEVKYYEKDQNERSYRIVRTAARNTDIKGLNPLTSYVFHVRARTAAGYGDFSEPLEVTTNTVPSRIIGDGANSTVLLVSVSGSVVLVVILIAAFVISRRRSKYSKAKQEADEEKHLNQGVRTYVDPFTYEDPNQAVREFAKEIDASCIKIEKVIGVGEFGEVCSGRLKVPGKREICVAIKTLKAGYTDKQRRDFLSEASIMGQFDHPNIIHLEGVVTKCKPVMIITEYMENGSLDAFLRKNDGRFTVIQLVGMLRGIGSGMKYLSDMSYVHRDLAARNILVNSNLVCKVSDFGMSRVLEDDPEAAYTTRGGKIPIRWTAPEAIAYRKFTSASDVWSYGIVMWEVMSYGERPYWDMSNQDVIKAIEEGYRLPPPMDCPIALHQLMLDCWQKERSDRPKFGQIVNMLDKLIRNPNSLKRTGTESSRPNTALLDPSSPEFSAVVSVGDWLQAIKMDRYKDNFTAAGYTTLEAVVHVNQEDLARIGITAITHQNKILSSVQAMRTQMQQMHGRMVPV
Sequence of Mitogen-activated protein kinase kinase kinase 9 (Homo sapiens) (P80192 whole entry, looked up): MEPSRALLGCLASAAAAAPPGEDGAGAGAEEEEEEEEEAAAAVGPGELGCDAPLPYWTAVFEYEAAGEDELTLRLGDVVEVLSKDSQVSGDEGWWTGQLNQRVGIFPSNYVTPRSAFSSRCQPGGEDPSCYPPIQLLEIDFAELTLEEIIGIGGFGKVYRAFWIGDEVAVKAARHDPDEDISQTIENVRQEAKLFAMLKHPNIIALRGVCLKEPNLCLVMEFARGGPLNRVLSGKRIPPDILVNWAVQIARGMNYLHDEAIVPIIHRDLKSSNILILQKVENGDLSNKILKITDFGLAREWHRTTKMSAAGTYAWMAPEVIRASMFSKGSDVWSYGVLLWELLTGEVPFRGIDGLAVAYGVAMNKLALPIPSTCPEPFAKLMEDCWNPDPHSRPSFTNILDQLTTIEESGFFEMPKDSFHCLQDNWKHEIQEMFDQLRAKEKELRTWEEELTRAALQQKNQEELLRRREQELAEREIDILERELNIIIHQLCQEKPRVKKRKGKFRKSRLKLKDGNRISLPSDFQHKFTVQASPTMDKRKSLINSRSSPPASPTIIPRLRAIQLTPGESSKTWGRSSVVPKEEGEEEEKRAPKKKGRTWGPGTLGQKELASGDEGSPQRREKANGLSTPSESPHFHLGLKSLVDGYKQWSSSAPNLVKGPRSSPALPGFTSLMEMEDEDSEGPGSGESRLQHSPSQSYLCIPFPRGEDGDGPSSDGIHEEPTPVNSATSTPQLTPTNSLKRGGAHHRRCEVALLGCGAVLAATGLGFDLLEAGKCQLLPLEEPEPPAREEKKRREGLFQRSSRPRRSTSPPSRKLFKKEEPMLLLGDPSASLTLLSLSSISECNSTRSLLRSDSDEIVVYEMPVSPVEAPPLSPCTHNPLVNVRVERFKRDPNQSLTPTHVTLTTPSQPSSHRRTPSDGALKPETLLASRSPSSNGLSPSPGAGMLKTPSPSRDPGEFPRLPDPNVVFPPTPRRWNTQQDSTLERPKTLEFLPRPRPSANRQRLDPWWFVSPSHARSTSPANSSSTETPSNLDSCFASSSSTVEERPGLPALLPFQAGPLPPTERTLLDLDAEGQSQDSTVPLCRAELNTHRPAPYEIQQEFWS
Sequence of Serine/threonine-protein kinase MAK (Homo sapiens) (P20794 whole entry): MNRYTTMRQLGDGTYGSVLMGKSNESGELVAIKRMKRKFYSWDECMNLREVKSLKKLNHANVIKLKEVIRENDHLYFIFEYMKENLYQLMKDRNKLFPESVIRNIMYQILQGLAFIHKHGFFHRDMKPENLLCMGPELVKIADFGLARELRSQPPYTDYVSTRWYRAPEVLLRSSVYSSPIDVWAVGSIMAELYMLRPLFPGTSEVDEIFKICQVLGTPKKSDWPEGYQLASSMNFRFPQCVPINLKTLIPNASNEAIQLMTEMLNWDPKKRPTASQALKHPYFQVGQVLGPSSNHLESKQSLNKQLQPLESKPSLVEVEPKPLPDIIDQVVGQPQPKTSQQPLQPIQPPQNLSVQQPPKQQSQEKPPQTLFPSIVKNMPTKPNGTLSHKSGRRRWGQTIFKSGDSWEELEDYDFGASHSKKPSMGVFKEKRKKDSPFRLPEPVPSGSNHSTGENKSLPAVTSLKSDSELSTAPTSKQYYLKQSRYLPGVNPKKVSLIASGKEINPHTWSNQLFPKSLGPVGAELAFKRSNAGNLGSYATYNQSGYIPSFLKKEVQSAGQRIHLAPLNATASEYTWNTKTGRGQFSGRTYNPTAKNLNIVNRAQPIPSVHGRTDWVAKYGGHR

Compound `O=C1c2ccc(Nc3ccc(F)cc3F)cc2CCc2ccc(OC[C@H](O)CO)cc21` [Skepinone-L] has an Activity [1] of 120%, an IC50 [2] of 1590 nM and an Activity [3] of 116%. It also gave an Activity [4] of 100%, an IC50 [5] of 650 nM and an Activity [6] of 100%. The Activity [7] was 79%, the Activity [8] was 100% and the Activity [9] was 100%. It also gave an Activity [10] of 100%, an Activity [11] of 95% and an Activity [12] of 99%. The Activity [13] was 105%, the Activity [14] was 107% and the Activity [15] was 100%. For the same compound, the Activity [16] was 90%, the Activity [17] was 84% and the Activity [18] was 104%. The Activity [19] was 100%, the Activity [20] was 99% and the Activity [21] was 100%. For the same compound, the Activity [22] was 88%, the Activity [23] was 94% and the Activity [24] was 100%. It also gave an Activity [25] of 105%, an Activity [26] of 99% and an Activity [27] of 100%. For the same compound, the Activity [28] was 100% and the Activity [29] was 100%.
